Assay in all cases: AK assay 384-well format, Prestwick library screening
One assay has as its system E. cloacae. In kind it is cell-based, Enterobacter cloacae. Particulars: 50 μM final drug concentration; for fold induction at 50 µM: Enterobacter cloacae, 3 h.
The next assay deals with E. coli. The format is cell-based, Escherichia coli. Particulars: 50 μM final drug concentration; for fold induction at 50 µM: Escherichia coli, 3 h.
In the next assay the test system is K. pneumoniae. The format is cell-based, Klebsiella pneumoniae. Particulars: 50 μM final drug concentration; for fold induction at 50 µM: Klebsiella pneumoniae, 3 h.
Assay [1] relates to S. aureus strain USA300-0114. In kind it is cell-based, Staphylococcus aureus. Particulars: 50 μM final drug concentration; for fold induction at 50 µM: Staphylococcus aureus, USA300, 3 h.
The test system of another assay is P. aeruginosa. The format is cell-based, Pseudomonas aeruginosa. Particulars: 50 μM final drug concentration; for fold induction at 50 µM: Pseudomonas aeruginosa, 3 h.
For assay [2], the system named is A. baumannii strain 98-37-09. In kind it is cell-based, Acinetobacter baumannii. Particulars: 50 μM final drug concentration; for fold induction at 50 µM: Acinetobacter baumannii, 983709, 3 h.
The test system of another assay is E. faecium. In kind it is cell-based, Enterococcus faecium. Particulars: 50 μM final drug concentration; for fold induction at 50 µM: Enterococcus faecium, 3 h.

Where a name gives a salt, the structure may show the parent alone. Read-outs that look alike come from different tables or passages of the source.

For `CCn1cc(C(=O)O)c(=O)c2cc(F)c(N3CCNC(C)C3)c(F)c21` (stereo not shown) [Lomefloxacin hydrochloride], the fold induction at 50 µM stood at 3.5 with E. cloacae (planktonic E. cloacae, 384-well, cutoff for positive-scoring molecules 3-fold increase, read-out: AK-based Prestwick Library Screening Results: E. cloacae (increase in extracellular AK activity)); 26.8 in the assay with E. coli (planktonic E. coli, 384-well, cutoff for positive-scoring molecules 3-fold increase, read-out: AK-based Prestwick Library Screening Results: E. coli (increase in extracellular AK activity)); 1 in the assay with K. pneumoniae (planktonic K. pneumoniae, 384-well, cutoff for positive-scoring molecules 3-fold increase, read-out: AK-based Prestwick Library Screening Results: K. pneumoniae (increase in extracellular AK activity)); 3.4 in assay [1] (planktonic S. aureus, 384-well, cutoff for positive-scoring molecules 3-fold increase, read-out: AK-based Prestwick Library Screening Results: S. aureus (increase in extracellular AK activity)); 30.2 in the assay on P. aeruginosa (planktonic P. aeruginosa, 384-well, cutoff for positive-scoring molecules 3-fold increase, read-out: AK-based Prestwick Library Screening Results: P. aeruginosa (increase in extracellular AK activity)); 3.8 in assay [2] (planktonic A. baumannii, 384-well, cutoff for positive-scoring molecules 3-fold increase, read-out: AK-based Prestwick Library Screening Results: A. baumannii (increase in extracellular AK activity)). In addition, the fold induction at 50 µM with E. faecium (planktonic E. faecium, 384-well, cutoff for positive-scoring molecules 3-fold increase, read-out: AK-based Prestwick Library Screening Results: E. faecium (increase in extracellular AK activity)) was found to be 1.5.

With `Cc1oncc1C(=O)Nc1ccc(C(F)(F)F)cc1` [Leflunomide], the fold induction at 50 µM in the assay with E. cloacae (cutoff for positive-scoring molecules 3-fold increase, read-out: AK-based Prestwick Library Screening Results, E. cloacae (fold increase in extracellular AK activity)) amounted to 1.5; with E. coli (cutoff for positive-scoring molecules 3-fold increase, read-out: AK-based Prestwick Library Screening Results, E. coli (fold increase in extracellular AK activity)), 0.8; in the assay with K. pneumoniae (cutoff for positive-scoring molecules 3-fold increase, read-out: AK-based Prestwick Library Screening Results, K. pneumoniae (fold increase in extracellular AK activity)) it was 0.6; in assay [1] (cutoff for positive-scoring molecules 3-fold increase, read-out: AK-based Prestwick Library Screening Results, S. aureus (fold increase in extracellular AK activity)), 0.6; with P. aeruginosa (cutoff for positive-scoring molecules 3-fold increase, read-out: AK-based Prestwick Library Screening Results, P. aeruginosa (fold increase in extracellular AK activity)), 0.8; in assay [2] (cutoff for positive-scoring molecules 3-fold increase, read-out: AK-based Prestwick Library Screening Results, A. baumannii (fold increase in extracellular AK activity)), 0.8. The fold induction at 50 µM in the assay with E. faecium (cutoff for positive-scoring molecules 3-fold increase, read-out: AK-based Prestwick Library Screening Results, E. faecium (fold increase in extracellular AK activity)) was found to be 0.7.

As to `C[C@H](CCC(=O)O)[C@H]1CC[C@H]2[C@@H]3C(=O)C[C@@H]4CC(=O)CC[C@]4(C)[C@H]3CC(=O)[C@]12C` [Dehydrocholic acid], the fold induction at 50 µM in the assay with E. cloacae (384-well format, cutoff for positive-scoring molecules 3-fold increase, read-out: AK-based Prestwick Library Screening Results, E. cloacae (increase in extracellular AK activity)) turned out to be 1.4; in the assay on E. coli (384-well format, cutoff for positive-scoring molecules 3-fold increase, read-out: AK-based Prestwick Library Screening Results, E. coli (increase in extracellular AK activity)) it was 1.3; with K. pneumoniae (384-well format, cutoff for positive-scoring molecules 3-fold increase, read-out: AK-based Prestwick Library Screening Results, K. pneumoniae (increase in extracellular AK activity)), 0.8; in assay [1] (384-well format, cutoff for positive-scoring molecules 3-fold increase, read-out: AK-based Prestwick Library Screening Results, S. aureus (increase in extracellular AK activity)), 1; in the assay with P. aeruginosa (384-well format, cutoff for positive-scoring molecules 3-fold increase, read-out: AK-based Prestwick Library Screening Results, P. aeruginosa (increase in extracellular AK activity)), 1; in assay [2] (384-well format, cutoff for positive-scoring molecules 3-fold increase, read-out: AK-based Prestwick Library Screening Results, A. baumannii (increase in extracellular AK activity)), 1. In addition, in the assay with E. faecium (384-well format, cutoff for positive-scoring molecules 3-fold increase, read-out: AK-based Prestwick Library Screening Results, E. faecium (increase in extracellular AK activity)), the fold induction at 50 µM worked out at 1.

Take `Cc1cccc(C)c1NC(=O)CN1CCN(CCCC(c2ccc(F)cc2)c2ccc(F)cc2)CC1` [Lidoflazine]: the fold induction at 50 µM in the assay with E. cloacae (planktonic, cutoff for positive 3-fold increase, read-out: AK-based Prestwick Library Screening Results, E. cloacae (fold increase in extracellular AK activity)) came out at 1.4; with E. coli (planktonic, cutoff for positive 3-fold increase, read-out: AK-based Prestwick Library Screening Results, E. coli (fold increase in extracellular AK activity)), 1.4; in the assay on K. pneumoniae (planktonic, cutoff for positive 3-fold increase, read-out: AK-based Prestwick Library Screening Results, K. pneumoniae (fold increase in extracellular AK activity)), 1.1; in assay [1] (planktonic, cutoff for positive 3-fold increase, read-out: AK-based Prestwick Library Screening Results, S. aureus (fold increase in extracellular AK activity)), 1.4; in the assay with P. aeruginosa (planktonic, cutoff for positive 3-fold increase, read-out: AK-based Prestwick Library Screening Results, P. aeruginosa (fold increase in extracellular AK activity)), 1.3; in assay [2] (planktonic, cutoff for positive 3-fold increase, read-out: AK-based Prestwick Library Screening Results, A. baumannii (fold increase in extracellular AK activity)), 2.9. For the same compound, the fold induction at 50 µM with E. faecium (planktonic, cutoff for positive 3-fold increase, read-out: AK-based Prestwick Library Screening Results, E. faecium (fold increase in extracellular AK activity)) turned out to be 1.

With `CC(C)(C)C(=O)OCOC(=O)[C@@H]1N2C(=O)[C@@H](NC(=O)[C@H](N)c3ccccc3)[C@H]2SC1(C)C` [Pivampicillin], the fold induction at 50 µM worked out at 1.2 in the assay on E. cloacae (planktonic E. cloacae, […], read-out: AK-based Prestwick library screening result, E. cloacae (fold increase in extracellular AK activity)); 1.5 with E. coli (planktonic E. coli, […], read-out: AK-based Prestwick library screening result, E. coli (fold increase in extracellular AK activity)); 0.9 in the assay on K. pneumoniae (planktonic K. pneumoniae, […], read-out: AK-based Prestwick library screening result, K. pneumoniae (fold increase in extracellular AK activity)); 0.4 in assay [1] (planktonic S. aureus, […], read-out: AK-based Prestwick library screening result, S. aureus (fold increase in extracellular AK activity)); 0.9 with P. aeruginosa (planktonic P. aeruginosa, […], read-out: AK-based Prestwick library screening result, P. aeruginosa (fold increase in extracellular AK activity)); 1.8 in assay [2] (planktonic A. baumannii, […], read-out: AK-based Prestwick library screening result, A. baumannii (fold increase in extracellular AK activity)). In addition, the fold induction at 50 µM with E. faecium (planktonic E. faecium, […], read-out: AK-based Prestwick library screening result, E. faecium (fold increase in extracellular AK activity)) was determined as 1.1.

For `CNCC(O)c1ccc(O)cc1` (racemic) [(+,−)-Synephrine], in the assay with E. cloacae (planktonic E. cloacae, positive cutoff 3-fold increase), the “AK-based Prestwick library screening result, E. cloacae (fold increase in extracellular AK activity)” value is on record as 1.3. In the assay on E. coli (planktonic E. coli, positive cutoff 3-fold increase), the “AK-based Prestwick library screening result, E. coli (fold increase in extracellular AK activity)” value is 1.3. Besides, the “AK-based Prestwick library screening result, K. pneumoniae (fold increase in extracellular AK activity)” value with K. pneumoniae (planktonic K. pneumoniae, positive cutoff 3-fold increase) is 1.0. Moreover, in assay [1] (planktonic S. aureus, positive cutoff 3-fold increase), the “AK-based Prestwick library screening result, S. aureus (fold increase in extracellular AK activity)” value stood at 1.0. In the assay on P. aeruginosa (planktonic P. aeruginosa, positive cutoff 3-fold increase), the “AK-based Prestwick library screening result, P. aeruginosa (fold increase in extracellular AK activity)” value is given as 1.1. In addition, in assay [2] (planktonic A. baumannii, positive cutoff 3-fold increase), the “AK-based Prestwick library screening result, A. baumannii (fold increase in extracellular AK activity)” value came out at 1.1. Further, in the assay with E. faecium (planktonic E. faecium, positive cutoff 3-fold increase), the “AK-based Prestwick library screening result, E. faecium (fold increase in extracellular AK activity)” value worked out at 1.1.

Take `CCOC(=O)[C@H](CCc1ccccc1)N[C@@H](C)C(=O)N1[C@H](C(=O)O)C[C@@H]2CCC[C@@H]21` [Ramipril]: the fold induction at 50 µM was 1.1 in the assay with E. cloacae (planktonic E. cloacae, positive cutoff 3-fold increase, read-out: AK-based Prestwick library screening result, E. cloacae (fold increase in extracellular AK activity)); 1.1 in the assay with E. coli (planktonic E. coli, positive cutoff 3-fold increase, read-out: AK-based Prestwick library screening result, E. coli (fold increase in extracellular AK activity)); 1 in the assay on K. pneumoniae (planktonic K. pneumoniae, positive cutoff 3-fold increase, read-out: AK-based Prestwick library screening result, K. pneumoniae (fold increase in extracellular AK activity)); 1.2 in assay [1] (planktonic S. aureus, positive cutoff 3-fold increase, read-out: AK-based Prestwick library screening result, S. aureus (fold increase in extracellular AK activity)); 1.2 in the assay on P. aeruginosa (planktonic P. aeruginosa, positive cutoff 3-fold increase, read-out: AK-based Prestwick library screening result, P. aeruginosa (fold increase in extracellular AK activity)); 1.3 in assay [2] (planktonic A. baumannii, positive cutoff 3-fold increase, read-out: AK-based Prestwick library screening result, A. baumannii (fold increase in extracellular AK activity)). In the assay on E. faecium (planktonic E. faecium, positive cutoff 3-fold increase, read-out: AK-based Prestwick library screening result, E. faecium (fold increase in extracellular AK activity)), the fold induction at 50 µM stood at 1.

These data come from patent US10004701B2, “Methods and compositions for treating infection” (UNIVERSITY OF ROCHESTER, priority 2012, dated 2018).
